Structures can show the parent of a compound that is named as a salt. Where two headings read alike, the source gives them in different places.
Legend:
erythrocytes = assay: Activity to improve the deformation of erythrocytes (time to pass through millipore filter); type: cell-based, male New Zealand rabbit; details: rabbit washed erythrocytes treated with Ca^2+ and ionofore A-23187; 5 μm millipore filter
Description: A suspension of washed erythrocytes was prepared from a blood collected by heart puncture from a male New Zealand rabbit having a body weight of about 3 kg and having Heparin added thereto, by using a Krebs-Henseleit solution containing 20 mM of HEPES. […] As a control drug, W-7 was used.

[1] = biological target: T1, bovine cerebral calmodulin (Bos taurus, UniProt P62157); assay: Calmodulin antagonism (inhibition of 5'-AMP formation by calmodulin-stimulated c-AMP-PDE); type: biochemical
T1 construct: bovine cerebral calmodulin; from tissue; host or cells: bovine brain (calmodulin); bovine myocardium (PDE)
Description: As a control drug, W-7 [N-(6-aminohexyl)-5-chloro-1-naphthalenesulfonamide]was used.

Ca^2 + Channel = biological target: T2, Ca^2 + Channel (Cavia porcellus, UniProt O35505); assay: Calcium channel antagonism (isolated guinea pig cecum string, calcium chloride concentration reaction curve); type: cell-based, male Hartley guinea pig; details: high potassium Krebs solution, 32° C, pretreatment 30 minutes, read-out: Ca^2 + Channel antagonism (pA2) (converted)
T2 construct: The cecum string of a male Hartley guinea pig; from tissue; host or cells: isolated cecum string (taenia caeci) of male Hartley guinea pig
Description: The cecum string of a male Hartley guinea pig having a body weight of 350 g was taken out, and while air was supplied,.it was hanged with a load of 0.5 g in a high potassium Krebs solution bath (32° C) having calcium removed. Calcium chloride was accumulatively added, and the reaction was recorded by means of an isotonic tranduser (manufactured by Nippon Koden K. K.) to obtain a constant standard concentration reaction curve.
On the other hand, pretreatment with a compound of the present invention was conducted for 30 minutes, and then calcium chloride was added to the reaction bath, and from concetration reaction curve thereby obtained, pA2 was obtained.

[2] = 50 m units bovine cerebral calmodulin, 0.1 mM Ca^2+, 1 μM c-AMP, 0.875 m units bovine myocardial c-AMP-PDE, read-out: Calmodulin antagonism IC50

T2 sequence (O35505 whole entry): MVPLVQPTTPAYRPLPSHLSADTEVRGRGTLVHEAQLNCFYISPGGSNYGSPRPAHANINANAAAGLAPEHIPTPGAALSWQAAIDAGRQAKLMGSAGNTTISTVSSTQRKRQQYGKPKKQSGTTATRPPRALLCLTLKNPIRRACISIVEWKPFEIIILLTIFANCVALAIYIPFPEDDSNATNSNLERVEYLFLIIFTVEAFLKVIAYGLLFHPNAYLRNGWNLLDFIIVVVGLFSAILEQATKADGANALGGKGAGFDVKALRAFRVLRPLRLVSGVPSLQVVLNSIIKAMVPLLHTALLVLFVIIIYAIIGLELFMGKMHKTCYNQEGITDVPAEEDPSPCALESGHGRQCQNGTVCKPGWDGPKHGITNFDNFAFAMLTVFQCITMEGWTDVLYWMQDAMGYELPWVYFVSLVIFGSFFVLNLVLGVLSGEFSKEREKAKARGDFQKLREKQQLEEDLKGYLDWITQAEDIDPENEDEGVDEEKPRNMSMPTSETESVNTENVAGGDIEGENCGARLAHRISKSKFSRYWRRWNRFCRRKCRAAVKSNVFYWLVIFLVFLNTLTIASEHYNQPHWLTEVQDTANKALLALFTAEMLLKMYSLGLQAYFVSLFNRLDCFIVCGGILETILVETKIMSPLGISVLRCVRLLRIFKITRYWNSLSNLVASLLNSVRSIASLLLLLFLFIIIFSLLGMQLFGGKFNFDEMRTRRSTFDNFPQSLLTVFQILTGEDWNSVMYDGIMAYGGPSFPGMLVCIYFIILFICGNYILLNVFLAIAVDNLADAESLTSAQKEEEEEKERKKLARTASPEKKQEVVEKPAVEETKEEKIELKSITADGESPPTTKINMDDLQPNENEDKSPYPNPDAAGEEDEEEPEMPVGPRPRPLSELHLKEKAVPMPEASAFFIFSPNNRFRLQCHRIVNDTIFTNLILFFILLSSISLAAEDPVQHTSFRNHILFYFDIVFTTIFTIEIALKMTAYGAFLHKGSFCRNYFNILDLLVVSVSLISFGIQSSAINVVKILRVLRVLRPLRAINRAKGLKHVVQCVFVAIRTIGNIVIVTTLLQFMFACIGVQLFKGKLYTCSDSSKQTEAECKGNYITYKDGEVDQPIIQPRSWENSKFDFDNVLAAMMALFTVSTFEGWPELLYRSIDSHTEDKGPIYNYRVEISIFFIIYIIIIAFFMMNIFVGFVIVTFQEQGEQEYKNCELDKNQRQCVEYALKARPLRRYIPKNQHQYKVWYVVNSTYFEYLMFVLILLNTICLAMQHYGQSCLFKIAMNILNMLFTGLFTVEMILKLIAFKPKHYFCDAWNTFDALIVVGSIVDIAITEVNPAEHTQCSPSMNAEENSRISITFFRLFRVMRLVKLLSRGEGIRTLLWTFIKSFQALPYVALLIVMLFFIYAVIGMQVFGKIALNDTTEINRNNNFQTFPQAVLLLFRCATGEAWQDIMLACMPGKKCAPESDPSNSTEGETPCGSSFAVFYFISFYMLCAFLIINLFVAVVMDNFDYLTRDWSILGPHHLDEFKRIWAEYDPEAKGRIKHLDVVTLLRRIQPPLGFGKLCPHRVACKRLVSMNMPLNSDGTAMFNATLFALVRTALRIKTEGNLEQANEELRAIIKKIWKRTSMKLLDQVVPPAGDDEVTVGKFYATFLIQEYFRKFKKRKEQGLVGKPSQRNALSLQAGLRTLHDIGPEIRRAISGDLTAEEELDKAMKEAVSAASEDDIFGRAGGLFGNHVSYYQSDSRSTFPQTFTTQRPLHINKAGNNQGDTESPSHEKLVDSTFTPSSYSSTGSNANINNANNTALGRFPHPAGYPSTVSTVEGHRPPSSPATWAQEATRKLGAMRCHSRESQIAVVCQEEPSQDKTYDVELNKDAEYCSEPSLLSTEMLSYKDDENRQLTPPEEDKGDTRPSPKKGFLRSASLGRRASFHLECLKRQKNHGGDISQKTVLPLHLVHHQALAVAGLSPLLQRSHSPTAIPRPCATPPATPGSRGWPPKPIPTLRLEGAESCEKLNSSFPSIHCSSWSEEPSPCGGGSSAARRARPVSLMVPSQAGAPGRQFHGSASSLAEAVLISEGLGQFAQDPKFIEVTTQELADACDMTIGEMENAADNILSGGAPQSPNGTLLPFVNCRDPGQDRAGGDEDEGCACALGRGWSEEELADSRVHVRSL

Row | IC50 [1, 2] [µM] | Structure (SMILES) | Activity to improve the deformation of erythrocytes [pass through time (sec.)] (erythrocytes) [s] | Kb (Ca^2 + Channel) [nM] | IC50 [1] [µM]
1 |  | CNc1ccc2oc(C[C@H]3O[C@@]4(CC[C@H]3C)O[C@H]([C@H](C)C(=O)c3ccc[nH]3)[C@H](C)C[C@H]4C)nc2c1C(=O)O [Calcium salt of A 23187, reference compound] | 39 |  | 
2 |  | COc1ccc(CON=C(c2ccccc2)c2ccccn2)cc1OC [Compound 13, O-(3,4-dimethoxybenzyl)-phenyl-2-pyridylketoxime] | 16 | 148 | 
3 |  | c1ccc(C(=NOCc2cccc3ccccc23)c2cccnc2)cc1 [Compound 20, O-(1-naphthylmethyl)-phenyl-3-pyridylketoxime] | 20 | 525 | 
4 | 8.8 | Clc1ccccc1CCON=C(c1ccccc1)c1cccnc1 [Compound 46] | 18 |  | 
5 | 6.3 | Clc1cccc(CCON=C(c2ccccc2)c2cccnc2)c1 [Compound 47] | 15 |  | 
6 |  | Clc1ccc(C(=NOCCc2ccccc2)c2cccnc2)cc1 [Compound 57] | 20 |  | 9.5
7 |  | Clc1ccccc1C(=NOCCc1ccccc1)c1cccnc1 [Compound 58] | 12 |  | 3.5
8 | 8 | Cc1ccc(C)c(C(=NOCCc2ccccc2)c2cccnc2)c1 [Compound 62] | 18 | 933 | 
9 | 5 | Fc1cccc(C(=NOCCc2ccccc2)c2cccnc2)c1 [Compound 63] | 18 | 603 | 
10 | 6.5 | FC(F)(F)c1cccc(C(=NOCCc2ccccc2)c2cccnc2)c1 [Compound 64] | 16 | 871 | 
11 |  | O=[N+]([O-])c1cccc(C(=NOCCc2ccccc2)c2cccnc2)c1 [Compound 65] | 18 | 692 | 
12 |  | c1ccc(CCON=C(c2cccnc2)c2cccs2)cc1 [Compound 66] | 17 | 525 | 
13 |  | NCCCCCCNS(=O)(=O)c1cccc2c(Cl)cccc12 [Compound W-7, N-(6-aminohexyl)-5-chloro-1-naphthalenesulfonamide, reference compound] | 25 |  | 

Row | Structure (SMILES) | IC50 [1, 2] [µM] | Activity to improve the deformation of erythrocytes [pass through time (sec.)] (erythrocytes) [s] | Kb (Ca^2 + Channel) [nM] | IC50 [1] [µM]
14 | c1ccc(CCON=C(c2ccccc2)c2cccnc2)cc1 [Compound 1, O-(2-phenylethyl)-phenyl-3-pyridylketoxime] | 3.8 | 12 | 275 | 
15 | COc1ccc(CON=C(c2ccccc2)c2cccnc2)cc1OC [Compound 14, O-(3,4-dimethoxybenzyl)-phenyl-3-pyridiylketoxime] | 8 | 15 | 437 | 
16 | c1ccc(OCCON=C(c2ccccc2)c2cccnc2)cc1 [Compound 26, O-[(2-phenoxy)ethyl]-phenyl-3-pyridylketoxime] | 10 | 18 | 234 | 
17 | Cc1ccccc1CCON=C(c1ccccc1)c1cccnc1 [Compound 43, O-[2-(2-methylphenyl)ethyl]-phenyl-3-pyridylketoxime] | 4.1 | 14 | 479 | 
